Each structure is given as a SMILES string.

The target in assay [1] is BTK (phospho-BTK) in human whole blood (Homo sapiens, UniProt Q06187). Description: In vitro PD assay in human whole blood (pBTK assay).
In assay [2] the target is T1, BTK enzyme (Homo sapiens, UniProt Q06187).
T1 construct: purchased Upstate 14-552
The assay is described as follows: In vitro BTK kinase assay: BTK-POLYGAT-LS assay. The assay is classed as biochemical. The note with it: ATP 10 μM, read-out: IC50 (10uMATP). In outline: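 Human BTK activity was measured with final 10 μM ATP and 100 nM polyGAT substrate in pH 7.5 Tris buffer with 10 mM MgCl2, DTT, Triton X-100 and casein.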

BTK (phospho-BTK) in human whole blood, sequence (Q06187 whole entry): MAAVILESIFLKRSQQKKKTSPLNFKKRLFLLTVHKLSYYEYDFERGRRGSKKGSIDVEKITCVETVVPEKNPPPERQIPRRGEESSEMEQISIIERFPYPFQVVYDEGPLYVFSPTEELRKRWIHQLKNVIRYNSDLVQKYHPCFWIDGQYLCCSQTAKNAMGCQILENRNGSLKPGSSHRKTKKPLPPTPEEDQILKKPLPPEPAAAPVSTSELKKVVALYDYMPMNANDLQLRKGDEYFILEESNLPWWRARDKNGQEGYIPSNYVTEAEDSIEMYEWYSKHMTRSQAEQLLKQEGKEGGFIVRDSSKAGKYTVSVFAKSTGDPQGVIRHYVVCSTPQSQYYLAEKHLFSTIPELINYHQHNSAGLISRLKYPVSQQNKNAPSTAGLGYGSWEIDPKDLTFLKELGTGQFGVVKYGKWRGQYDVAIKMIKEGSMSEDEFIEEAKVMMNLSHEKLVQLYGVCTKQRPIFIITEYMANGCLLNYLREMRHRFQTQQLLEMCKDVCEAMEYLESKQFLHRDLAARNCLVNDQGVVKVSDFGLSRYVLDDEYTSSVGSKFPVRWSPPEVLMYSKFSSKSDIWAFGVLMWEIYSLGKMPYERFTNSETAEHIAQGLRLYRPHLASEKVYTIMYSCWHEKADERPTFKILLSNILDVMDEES
T1 sequence (Q06187 whole entry): as above

Take `CC(C)(C)OC1CN(C(=O)N[C@@H]2CCCCc3cc(-c4ccnc(Nc5cnn(CCO)c5)n4)ccc32)C1` [Example I-229, (R)-3-(tert-butoxy)-N-(2-(2-((1-(2-hydroxyethyl)-1H-pyrazol-4-yl)amino)-pyrimidin-4-yl)-6,7,8,9-tetrahydro-5H-benzo[7]annulen-5-yl)azetidine-1-carboxamide]: the half-inhibitory concentration (IC50) in assay [1] is under 500 nM; in assay [2] it was under 10 nM.

Take `Cc1cc(-c2cc(Nc3cc4c(cn3)CN(C)CC4)ncn2)ccc1CNC(=O)c1cnc(C(C)(C)C)s1` [Example I-269, 2-tert-butyl-N-[[2-methyl-4-[6-[(7-methyl-6,8-dihydro-5H-2,7-naphthyridin-3-yl)amino]pyrimidin-4-yl]phenyl]methyl]thiazole-5-carboxamide]: the 50% inhibitory concentration (IC50) in assay [1] is under 500 nM; in assay [2], under 10 nM.

As for `Cc1cc(-c2ccnc(Nc3cnn(CCN)c3)n2)ccc1CNC(=O)c1cnc(C(C)(C)C)s1` [Example I-50, N-(4-(2-((1-(2-aminoethyl)-1H-pyrazol-4-yl)amino)pyrimidin-4-yl)-2-methylbenzyl)-2-(tert-butyl)thiazole-5-carboxamide], the IC50 in assay [1] was under 500 nM; in assay [2], under 10 nM.

On to `CC(C)OC1CN(C(=O)NCc2ccc(-c3ccnc(Nc4cnn(C(C)C)c4)n3)cc2C(F)(F)F)C1` [Example I-299, 3-isopropoxy-N-[[4-[2-[(1-isopropylpyrazol-4-yl)amino]pyrimidin-4-yl]-2-(trifluoromethyl)phenyl]methyl]azetidine-1-carboxamide], for which the values for the IC50 in assay [1] and in assay [2] were under 500 nM and under 10 nM, respectively.

On to `CC(C)OC1CN(C(=O)N[C@@H]2CCCCc3cc(-c4ccnc(Nc5cnn(CCO)c5)n4)ccc32)C1` [Example I-169, (R)—N-(2-(2-((1-(2-hydroxyethyl)-1H-pyrazol-4-yl)amino)pyrimidin-4-yl)-6,7,8,9-tetrahydro-5H-benzo[7]annulen-5-yl)-3-isopropoxyazetidine-1-carboxamide], for which the IC50 in assay [1] is under 500 nM; in assay [2], under 10 nM.

Consider `Cc1cc(-c2ccnc(Nc3cnn(C(C)C)c3)n2)ccc1CNC(=O)N1CC(OC(C)C)C1` [Example I-259, 3-isopropoxy-N-[[4-[2-[(1-isopropylpyrazol-4-yl)amino]pyrimidin-4-yl]-2-methyl-phenyl]methyl]azetidine-1-carboxamide], for which the IC50 is under 500 nM in assay [1] and under 10 nM in assay [2].

`CC(C)OC1CN(C(=O)NC2CCCCc3cc(-c4ccnc(Nc5cnn(C(C)C)c5)n4)ccc32)C1` (centres unmarked) [Example I-167, 3-isopropoxy-N-(2-(2-((1-isopropyl-1H-pyrazol-4-yl)amino)pyrimidin-4-yl)-6,7,8,9-tetrahydro-5H-benzo[7]annulen-5-yl)azetidine-1-carboxamide]: the IC50 in assay [1] was under 500 nM; in assay [2], under 10 nM.

With `Cc1cc(-c2cc(Nc3cc4n(n3)CCCN(C)C4)ncn2)ccc1CNC(=O)c1cnn(C(C)(C)C)c1` [Example I-236, 1-(tert-butyl)-N-(2-methyl-4-(6-((5-methyl-5,6,7,8-tetrahydro-4H-pyrazolo[1,5-a][1,4]diazepin-2-yl)amino)pyrimidin-4-yl)benzyl)-1H-pyrazole-4-carboxamide], the IC50 was under 500 nM in assay [1] and under 10 nM in assay [2].

Consider `Cc1cc(-c2cc(Nc3cc4n(n3)CCC4)ncn2)ccc1CNC(=O)c1cnn(C(C)(C)C)c1` [Example I-193, 1-(tert-butyl)-N-(4-(6-((5,6-dihydro-4H-pyrrolo[1,2-b]pyrazol-2-yl)amino)pyrimidin-4-yl)-2-methylbenzyl)-1H-pyrazole-4-carboxamide], for which the IC50 in assay [1] was under 500 nM; in assay [2], under 10 nM.

Regarding `CC(C)OC1CN(C(=O)NCc2ccc(-c3ccnc(Nc4cnn(C5CN(C)C5)c4)n3)cc2Cl)C1` [Example I-353, N-[[2-chloro-4-[2-[[1-(1-methylazetidin-3-yl)pyrazol-4-yl]amino]pyrimidin-4-yl]phenyl]methyl]-3-isopropoxy-azetidine-1-carboxamide], the IC50 in assay [1] is under 500 nM; in assay [2] it was under 10 nM.

Regarding `COCCc1cc(-c2ccnc(Nc3cnn4c3CCC4)n2)ccc1CNC(=O)N1CC(OC(C)(C)C)C1` [Example I-323, 3-tert-butoxy-N-[[4-[2-(5,6-dihydro-4H-pyrrolo[1,2-b]pyrazol-3-ylamino)pyrimidin-4-yl]-2-(2-methoxyethyl)phenyl]methyl]azetidine-1-carboxamide], the results for the IC50 in assay [1] and in assay [2] were under 500 nM and under 10 nM, respectively.

In the case of `CC(C)OC1CN(C(=O)NCc2ccc(-c3ccnc(Nc4cnn(CCO)c4)n3)cc2C(F)(F)F)C1` [Example I-301, N-[[4-[2-[[1-(2-hydroxyethyl)pyrazol-4-yl]amino]pyrimidin-4-yl]-2-(trifluoromethyl)phenyl]methyl]-3-isopropoxy-azetidine-1-carboxamide], the IC50 in assay [1] was under 500 nM; in assay [2] it was under 10 nM.

Regarding `COCCn1cc(Nc2nccc(-c3ccc(CNC(=O)c4cnc(C(C)(C)C)s4)c(C)c3)n2)cn1` [Example I-39, 2-(tert-butyl)-N-(4-(2-((1-(2-methoxyethyl)-1H-pyrazol-4-yl)amino)pyrimidin-4-yl)-2-methylbenzyl)thiazole-5-carboxamide], the IC50 in assay [1] is under 500 nM; in assay [2] it was under 10 nM.

Turning to `Cc1cc(-c2ccnc(N)n2)ccc1CNC(=O)c1cc2c(s1)CCCC2` [Example I-142, N-(4-(2-aminopyrimidin-4-yl)-2-methylbenzyl)-4,5,6,7-tetrahydrobenzo[b]thiophene-2-carboxamide], the IC50 was 1500 to 10000 nM in assay [1] and under 10 nM in assay [2].

As for `Cc1cc(-c2cc(Nc3cc4n(n3)CCN(C)C4)ncn2)ccc1CNC(=O)N1CC(OC(C)(C)C)C1` [Example I-256, 3-tert-butoxy-N-[[2-methyl-4-[6-[(5-methyl-6,7-dihydro-4H-pyrazolo[1,5-a]pyrazin-2-yl)amino]pyrimidin-4-yl]phenyl]methyl]azetidine-1-carboxamide], the IC50 was under 500 nM in assay [1] and under 10 nM in assay [2].

Regarding `CN1CC(n2cc(Nc3nccc(-c4ccc(CNC(=O)c5cc(C(C)(C)C)on5)c(Cl)c4)n3)cn2)C1` [Example I-354, 5-tert-butyl-N-[[2-chloro-4-[2-[[1-(1-methylazetidin-3-yl)pyrazol-4-yl]amino]pyrimidin-4-yl]phenyl]methyl]isoxazole-3-carboxamide], the IC50 in assay [1] is under 500 nM; in assay [2], under 10 nM.

`CC(C)(C)OC1CN(C(=O)NC2CCCCc3cc(-c4ccnc(Nc5cnn(CCO)c5)n4)ccc32)C1` (centres unmarked) [Example I-178, 3-(tert-butoxy)-N-(2-(2-((1-(2-hydroxyethyl)-1H-pyrazol-4-yl)amino)pyrimidin-4-yl)-6,7,8,9-tetrahydro-5H-benzo[7]annulen-5-yl)azetidine-1-carboxamide]: the concentration for half-maximal inhibition (IC50) in assay [1] was under 500 nM; in assay [2], under 10 nM.

As for `CC(C)(C)OC1CN(C(=O)NC2CCCCc3cc(-c4ccnc(Nc5cnn(C6CCOCC6)c5)n4)ccc32)C1` (centres unmarked) [Example I-179, 3-(tert-butoxy)-N-(2-(2-((1-(tetrahydro-2H-pyran-4-yl)-1H-pyrazol-4-yl)amino)pyrimidin-4-yl)-6,7,8,9-tetrahydro-5H-benzo[7]annulen-5-yl)azetidine-1-carboxamide], the results for the half-inhibitory concentration (IC50) in assay [1] and in assay [2] were under 500 nM and under 10 nM, respectively.

As to `Cc1cc(-c2cc(Nc3cc4n(n3)CCNC4)ncn2)ccc1CNC(=O)N1CC(OC(C)C)C1` [Example I-272, 3-isopropoxy-N-[[2-methyl-4-[6-(4,5,6,7-tetrahydropyrazolo[1,5-a]pyrazin-2-ylamino)pyrimidin-4-yl]phenyl]methyl]azetidine-1-carboxamide], the IC50 in assay [1] was under 500 nM; in assay [2], under 10 nM.

`CCn1cc(Nc2nccc(-c3ccc(CNC(=O)N4CCC(C(C)(C)C)C4)c(C)c3)n2)cn1` (centres unmarked) [Example I-305, 3-tert-butyl-N-[[4-[2-[(1-ethylpyrazol-4-yl)amino]pyrimidin-4-yl]-2-methyl-phenyl]methyl]pyrrolidine-1-carboxamide]: the IC50 in assay [1] is under 500 nM; in assay [2] it was under 10 nM.

For the molecule `CCCC1CN(C(=O)NCc2ccc(-c3ccnc(Nc4cnn(C)c4)n3)cc2C)C1` [Example I-263, N-[[2-methyl-4-[2-[(1-methylpyrazol-4-yl)amino]pyrimidin-4-yl]phenyl]methyl]-3-propyl-azetidine-1-carboxamide], the IC50 is under 500 nM in assay [1] and under 10 nM in assay [2].

As for `Cc1cc(-c2cc(Nc3cc4n(n3)CCOC4)ncn2)ccc1CNC(=O)c1cnc(C(C)(C)C)s1` [Example I-276, 2-tert-butyl-N-[[4-[6-(6,7-dihydro-4H-pyrazolo[5,1-c][1,4]oxazin-2-ylamino)pyrimidin-4-yl]-2-methyl-phenyl]methyl]thiazole-5-carboxamide], the IC50 in assay [1] is under 500 nM; in assay [2], under 10 nM.

For the molecule `Cc1cc(-c2cc(Nc3cc4n(n3)CCCNC4)ncn2)ccc1CNC(=O)N1CC(OC(C)C)C1` [Example I-273, 3-isopropoxy-N-[[2-methyl-4-[6-(5,6,7,8-tetrahydro-4H-pyrazolo[1,5-a][1,4]diazepin-2-ylamino)pyrimidin-4-yl]phenyl]methyl]azetidine-1-carboxamide], the figures for the IC50 in assay [1] and in assay [2] were under 500 nM and under 10 nM, respectively.

In the case of `Cn1cc(Nc2nccc(-c3ccc(CNC(=O)c4cnn(C(C)(C)C)c4)c(C#N)c3)n2)cn1` [Example I-211, 1-(tert-butyl)-N-(2-cyano-4-(2-((1-methyl-1H-pyrazol-4-yl)amino)pyrimidin-4-yl)benzyl)-1H-pyrazole-4-carboxamide], the figures for the IC50 in assay [1] and in assay [2] were under 500 nM and under 10 nM, respectively.

Take `Cc1cc(-c2ccnc(Nc3cnn4c3CCC4)n2)ccc1CNC(=O)N1CCC(C(C)(C)C)C1` (centres unmarked) [Example I-194, 3-(tert-butyl)-N-(4-(2-((5,6-dihydro-4H-pyrrolo[1,2-b]pyrazol-3-yl)amino)pyrimidin-4-yl)-2-methylbenzyl)pyrrolidine-1-carboxamide]: the results for the IC50 in assay [1] and in assay [2] were under 500 nM and under 10 nM, respectively.
